Test results as given in ChEMBL document CHEMBL3769367, “Orexin Receptor Antagonists: New Therapeutic Agents for the Treatment of Insomnia” (J Med Chem, 2016).

Tests used:
[1] = target: T1, Orexin/Hypocretin receptor type 1 (Homo sapiens, UniProt O43613); experiment: Binding affinity to OX1R (unknown origin)
T1 sequence (O43613 whole entry): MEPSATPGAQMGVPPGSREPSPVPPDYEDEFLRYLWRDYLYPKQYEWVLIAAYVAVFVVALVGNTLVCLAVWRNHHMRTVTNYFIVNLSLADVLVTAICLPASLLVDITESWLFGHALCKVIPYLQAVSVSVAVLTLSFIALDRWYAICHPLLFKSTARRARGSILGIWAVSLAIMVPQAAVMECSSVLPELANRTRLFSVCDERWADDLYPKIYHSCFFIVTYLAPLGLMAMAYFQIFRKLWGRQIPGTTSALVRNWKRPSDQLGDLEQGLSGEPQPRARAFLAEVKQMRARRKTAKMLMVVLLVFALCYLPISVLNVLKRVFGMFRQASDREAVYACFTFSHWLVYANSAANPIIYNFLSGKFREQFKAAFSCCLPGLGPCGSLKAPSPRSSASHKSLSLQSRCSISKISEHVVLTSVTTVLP

Orexin receptor type 2 [2] = target: T2, Orexin receptor type 2 (Homo sapiens, UniProt O43614); experiment: Binding affinity to OX2R (unknown origin)
T2 sequence (O43614 whole entry): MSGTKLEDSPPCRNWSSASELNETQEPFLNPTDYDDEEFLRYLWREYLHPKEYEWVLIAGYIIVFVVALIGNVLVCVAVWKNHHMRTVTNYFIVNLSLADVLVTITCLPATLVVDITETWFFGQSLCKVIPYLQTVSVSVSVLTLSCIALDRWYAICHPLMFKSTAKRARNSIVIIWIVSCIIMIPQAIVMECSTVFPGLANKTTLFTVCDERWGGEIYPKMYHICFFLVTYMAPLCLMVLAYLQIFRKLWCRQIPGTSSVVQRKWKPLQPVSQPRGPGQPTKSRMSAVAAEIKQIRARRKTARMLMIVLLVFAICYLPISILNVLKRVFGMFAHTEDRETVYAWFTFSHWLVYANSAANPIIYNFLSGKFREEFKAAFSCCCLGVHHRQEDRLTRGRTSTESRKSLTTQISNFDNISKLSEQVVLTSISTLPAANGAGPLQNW

Orexin receptor type 2 [3] = target: T2, Orexin receptor type 2; experiment: Antagonist activity at human OX2R expressed in CHO cells assessed as inhibition of orexin-A-induced intracellular calcium release by FLIPR assay; format: functional, cell-based
Cytochrome P450 3A4 = Cytochrome P450 3A4 (Homo sapiens, UniProt P08684); experiment: Inhibition of CYP3A4 (unknown origin); format: ADME
[4] = target: T1, Orexin/Hypocretin receptor type 1; experiment: Antagonist activity at human OX1R expressed in CHO cells assessed as inhibition of orexin-A-induced intracellular calcium release by FLIPR assay; format: functional, cell-based
[5] = target: T1, Orexin/Hypocretin receptor type 1; experiment: Antagonist activity at OX1R (unknown origin)
Orexin receptor type 2 [6] = target: T2, Orexin receptor type 2; experiment: Antagonist activity at OX2R (unknown origin)
Homo sapiens = organism: Homo sapiens; experiment: Apparent half life of the compound in human; format: ADME, organism-based; conditions: in vivo

Sequence of Cytochrome P450 3A4 (P08684 whole entry): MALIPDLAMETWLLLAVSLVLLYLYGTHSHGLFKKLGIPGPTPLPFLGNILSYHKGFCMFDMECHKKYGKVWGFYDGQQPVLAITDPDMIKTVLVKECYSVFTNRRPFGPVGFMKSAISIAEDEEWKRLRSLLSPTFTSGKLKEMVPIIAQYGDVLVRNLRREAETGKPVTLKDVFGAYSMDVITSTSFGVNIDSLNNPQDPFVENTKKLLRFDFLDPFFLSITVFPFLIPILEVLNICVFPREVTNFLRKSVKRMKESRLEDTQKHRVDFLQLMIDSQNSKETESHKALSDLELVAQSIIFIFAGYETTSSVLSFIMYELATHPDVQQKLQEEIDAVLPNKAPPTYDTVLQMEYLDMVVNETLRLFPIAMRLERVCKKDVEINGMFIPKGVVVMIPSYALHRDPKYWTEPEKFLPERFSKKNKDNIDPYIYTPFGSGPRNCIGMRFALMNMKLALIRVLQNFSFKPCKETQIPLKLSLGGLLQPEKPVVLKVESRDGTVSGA

`Cc1ccc(-n2nccn2)c(C(=O)N2C[C@@H](COc3ccc(F)c(C)c3)CC[C@H]2C)c1` (racemic) was tested, and the Ki [1] was 34 nM and the Ki (Orexin receptor type 2 [2]) was 22 nM.
Work on `COc1ccc(S(=O)(=O)N2CCC[C@H]2C(=O)Nc2cccc(SC)c2)cc1` yielded an IC50 (Orexin receptor type 2 [3]) of 7 nM, an IC50 (Cytochrome P450 3A4) of 8000 nM and an IC50 [4] of 31 nM.
With `Cc1nc(C(=O)N2CCCC[C@H]2CCOc2ccc(F)cc2)c(-c2ccccc2)s1` the IC50 [5] was 12 nM and the IC50 (Orexin receptor type 2 [6]) was 14 nM.
In the case of `Cc1nc(C(=O)N2CCCC[C@H]2CNC(=O)c2cccc3occc23)c(-c2ccc(F)cc2)s1` (stereo in doubt; form 2) [SB-649868], the “t1/2(app)” value (Homo sapiens) is reported as 39 h.
For `CSc1cccc(NC(=O)[C@@H]2CCCN2S(=O)(=O)c2ccc(Br)s2)c1`, the IC50 [4] was 21 nM.
In the case of `Cc1ccc(-n2nccn2)c(C(=O)N2C[C@H](COc3ccc(F)c(C)c3)CC[C@H]2C)c1` (racemic), the Ki [1] is reported as 0.3 nM and the Ki (Orexin receptor type 2 [2]) is reported as 0.1 nM.
Molecule `Cc1ccc(-n2nccn2)c(C(=O)N2CCCC(COc3ccc(F)c(C)c3)C2)c1` (stereo not given) has a Ki [1] of 15 nM and a Ki (Orexin receptor type 2 [2]) of 16 nM.
With `COc1ccc(CC2c3cc(OC(C)C)c(OC)cc3CCN2CC(=O)NCc2ccccc2)cc1OC` (stereo not given) the IC50 [5] was 17 nM and the IC50 (Orexin receptor type 2 [6]) was > 10000 nM.
